Test results: the supplement of paper PMC11061612

Key:
Experiment in all cases: combination Emax (second highest fraction inhibited in the dose matrix, 72 h); higher = more inhibition; extreme values may be limits of the assay
A375 (Melanoma) = test system: A375 (Melanoma)
Outline: (§1)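 Cell lines in DMEM/F12 or RPMI with 10% FBS were plated in 1536-well plates, held 24 hours at 37°C, 5% CO2, then given two-drug dose matrices for 72 hours (DMSO typically 0.2%). Viability was read by CellTiter-Glo 2.0 luminescence and scaled as inhibition from 0 (vehicle wells) to 1 (blank wells). Combination Emax is the second-highest inhibition in the matrix; Bliss excess is observed combination effect minus expected EA + EB − EA·EB, EA and EB being single-agent effects.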

[1] = test system: C2BBe1 (Colorectal Carcinoma)
Outline: as §1

C32 (Melanoma) = test system: C32 (Melanoma)
Outline: as §1

[2] = test system: KNS-62 (Squamous Cell Lung Carcinoma)
Outline: as §1

[3] = test system: L-363 (Plasma Cell Myeloma)
Outline: as §1

[4] = test system: MRK-nu-1 (Breast Carcinoma)
Outline: as §1

[5] = test system: NCI-H1048 (Small Cell Lung Carcinoma)
Outline: as §1

[6] = test system: NCI-H1648 (Lung Adenocarcinoma)
Outline: as §1

[7] = test system: NCI-H1975 (Lung Adenocarcinoma)
Outline: as §1

[8] = test system: NCI-H2170 (Squamous Cell Lung Carcinoma)
Outline: as §1

[9] = test system: NCI-H835 (Other Solid Carcinomas)
Outline: as §1

[10] = test system: OCI-M1 (Acute Myeloid Leukemia)
Outline: as §1

[11] = test system: SBC-5 (Small Cell Lung Carcinoma)
Outline: as §1

[12] = test system: SCC90 (Head and Neck Carcinoma)
Outline: as §1

SK-N-DZ (Neuroblastoma) = test system: SK-N-DZ (Neuroblastoma)
Outline: as §1

[13] = test system: SW1463 (Colorectal Carcinoma)
Outline: as §1

[14] = test system: TK (B-Cell Non-Hodgkin's Lymphoma)
Outline: as §1

[15] = test system: TOV-21G (Ovarian Carcinoma)
Outline: as §1

[16] = test system: IGROV-1 (Ovarian Carcinoma)
Outline: as §1

[17] = test system: JJN-3 (Plasma Cell Myeloma)
Outline: as §1

SMILES	combination Emax (A375 (Melanoma))	combination Emax [1]	combination Emax (C32 (Melanoma))	combination Emax [2]	combination Emax [3]	combination Emax [4]	combination Emax [5]	combination Emax [6]	combination Emax [7]	combination Emax [8]	combination Emax [9]	combination Emax [10]	combination Emax [11]	combination Emax [12]	combination Emax (SK-N-DZ (Neuroblastoma))	combination Emax [13]	combination Emax [14]	combination Emax [15]	combination Emax [16]	combination Emax [17]
C=CCn1c(=O)c2cnc(Nc3ccc(N4CCN(C)CC4)cc3)nc2n1-c1cccc(C(C)(C)O)n1 [AZD1775] + C1CN(CCC1(C(=O)N[C@@H](CCO)C2=CC=C(C=C2)Cl)N)C3=NC=NC4=C3C=CN4 [Capivasertib] (first compound max 3 µM, partner max 3 µM)	0.813	0.533	0.52	0.719	0.939	0.721	0.91	0.821	0.714	0.828	0.866	0.974	0.87	0.668	0.921	0.47	0.909	0.85	–	–
CN(CCO)CC[C@H](CSc1ccccc1)Nc1ccc(S(=O)(=O)NC(=O)c2ccc(N3CCC([C@@H](O)c4ccccc4-c4ccc(Cl)cc4)CC3)cc2)cc1S(=O)(=O)C(F)(F)F [AZD4320] + Cc1cc2ncnn2cc1Nc1ncc2c(n1)n(C1CCOCC1)c(=O)n2C [AZD7648] (first compound max 1 µM, 7x7, partner max 10 µM)	0.134	0.383	0.211	0.108	0.211	0.697	0.884	0.694	0.35	0.674	–	0.981	0.166	0.448	0.651	0.185	0.991	0.209	0.653	0.473
Cc1cc2ncnn2cc1Nc1ncc2c(n1)n(C1CCOCC1)c(=O)n2C [AZD7648] + O=C(c1cc(Cc2n[nH]c(=O)c3ccccc23)ccc1F)N1CCN(C(=O)C2CC2)CC1 [Olaparib] (first compound max 10 µM, 7x7, partner max 10 µM)	0.234	0.218	0.0555	0.149	0.231	0.387	0.412	0.328	0.389	0.411	–	0.173	0.218	0.188	0.278	0.0764	0.26	0.16	0.598	0.256
CN(CCO)CC[C@H](CSc1ccccc1)Nc1ccc(S(=O)(=O)NC(=O)c2ccc(N3CCC([C@@H](O)c4ccccc4-c4ccc(Cl)cc4)CC3)cc2)cc1S(=O)(=O)C(F)(F)F [AZD4320] + Nc1ccn([C@@H]2O[C@H](CO)[C@@H](O)C2(F)F)c(=O)n1 [Gemcitabine] (first compound max 1 µM, 7x7, partner max 0.3 µM)	0.996	–	0.805	0.595	0.458	0.892	–	0.49	–	–	0.966	–	–	–	–	0.455	–	–	–	–
Cc1cc2ncnn2cc1Nc1ncc2c(n1)n(C1CCOCC1)c(=O)n2C [AZD7648] + COc1cc([C@@H]2c3cc4c(cc3[C@@H](O[C@@H]3O[C@@H]5CO[C@@H](C)O[C@H]5[C@H](O)[C@H]3O)[C@H]3COC(=O)[C@H]23)OCO4)cc(OC)c1O [Etoposide] (first compound max 10 µM, 7x7, partner max 10 µM)	0.901	–	0.526	0.456	0.702	0.726	–	0.424	–	–	0.692	–	–	–	–	0.371	–	–	–	–
CN(CCO)CC[C@H](CSc1ccccc1)Nc1ccc(S(=O)(=O)NC(=O)c2ccc(N3CCC([C@@H](O)c4ccccc4-c4ccc(Cl)cc4)CC3)cc2)cc1S(=O)(=O)C(F)(F)F [AZD4320] + C[C@@H](Nc1cc(F)cc(F)c1)c1cc(C(=O)N(C)C)cc2c(=O)cc(N3CCOCC3)oc12 [AZD8186] (first compound max 1 µM, 7x7, partner max 3 µM)	0.519	0.461	0.681	0.382	0.249	0.589	0.962	0.812	0.421	0.764	–	1	0.41	0.557	0.868	0.27	0.999	0.37	0.832	0.497
C[C@@H](c1ccc2nccn2c1)n1nnc2ncc(-c3cnn(C)c3)nc21 [Savolitinib] + CN(CC[C@H](CSC1=CC=CC=C1)NC2=C(C=C(C=C2)S(=O)(=O)NC(=O)C3=CC=C(C=C3)N4CCC(CC4)[C@H](C5=CC=CC=C5C6=CC=C(C=C6)Cl)O)S(=O)(=O)C(F)(F)F)CCO [AZD4320] (first compound max 1 µM, 7x7, partner max 1 µM)	0.202	0.187	0.377	–	–	–	0.593	–	0.178	0.657	–	0.993	0.326	0.502	0.784	–	0.987	0.227	0.219	0.357
COc1cc2ncnc(Nc3ccc(F)c(Cl)c3)c2cc1OCCCN1CCOCC1 [Gefitinib] + CC(C)n1c(=O)n(C)c2cnc3cc(F)c(-c4ccc(OCCCN5CCCCC5)nc4)cc3c21 [AZD1390] (first compound max 10 µM, 7x7, partner max 0.3 µM)	0.0854	0.288	0.114	0.0888	0.148	0.443	0.0795	0.646	0.419	0.784	0.144	0.0417	0.0706	0.699	0.19	0.728	0.076	0.275	–	0.236
CN(CCO)CC[C@H](CSc1ccccc1)Nc1ccc(S(=O)(=O)NC(=O)c2ccc(N3CCC([C@@H](O)c4ccccc4-c4ccc(Cl)cc4)CC3)cc2)cc1S(=O)(=O)C(F)(F)F [AZD4320] + CCN(CCO)CCCOc1ccc2c(Nc3cc(CC(=O)Nc4cccc(F)c4)[nH]n3)ncnc2c1 [AZD2811] (first compound max 1 µM, 7x7, partner max 1 µM)	0.506	0.224	0.643	0.207	0.135	0.863	0.933	0.571	0.411	0.627	–	0.988	0.3	0.715	0.787	0.204	0.993	0.476	0.266	0.904
N#Cc1cnc(Nc2cc(NC[C@H]3CNCCO3)c(C(F)(F)F)cn2)cn1 [SRA737] + O=c1[nH]cc(F)c(=O)[nH]1 [5-Fluorouracil] (first compound max 10 µM, 7x7, partner max 20 µM)	0.226	–	0.15	0.382	0.934	0.443	–	0.208	–	–	0.391	–	–	–	–	0.402	–	–	–	–
CN(CCO)CC[C@H](CSc1ccccc1)Nc1ccc(S(=O)(=O)NC(=O)c2ccc(N3CCC([C@@H](O)c4ccccc4-c4ccc(Cl)cc4)CC3)cc2)cc1S(=O)(=O)C(F)(F)F [AZD4320] + C[C@@H]1COCCN1C2=NC(=NC(=C2)C3(CC3)[S@](=N)(=O)C)C4=C5C=CNC5=NC=C4 [AZD6738] (first compound max 1 µM, 7x7, partner max 10 µM)	0.789	0.494	0.787	0.581	0.853	0.819	0.981	0.872	0.481	0.829	–	1	0.771	0.535	1	0.566	1	0.824	0.876	0.797
CN(CCO)CC[C@H](CSc1ccccc1)Nc1ccc(S(=O)(=O)NC(=O)c2ccc(N3CCC([C@@H](O)c4ccccc4-c4ccc(Cl)cc4)CC3)cc2)cc1S(=O)(=O)C(F)(F)F [AZD4320] + C1CN(CCC1(C(=O)N[C@@H](CCO)C2=CC=C(C=C2)Cl)N)C3=NC=NC4=C3C=CN4 [Capivasertib] (first compound max 1 µM, 7x7, partner max 3 µM)	0.0874	0.209	0.257	0.232	0.376	0.3	0.86	0.735	0.558	0.772	–	0.984	0.175	0.836	0.705	0.271	0.97	0.688	0.767	0.383
N#Cc1cnc(Nc2cc(NC[C@H]3CNCCO3)c(C(F)(F)F)cn2)cn1 [SRA737] + CCc1c2c(nc3ccc(O)cc13)-c1cc3c(c(=O)n1C2)COC(=O)[C@]3(O)CC [SN-38] (first compound max 10 µM, 7x7, partner max 0.3 µM)	0.923	–	0.626	0.866	0.878	0.763	–	0.849	–	–	0.402	–	–	–	–	0.758	–	–	–	–
